Test results from patent US20240409556A1, “BENZOPIPERAZINE AND RELATED ANALOGS FOR INHIBITING YAP/TAZ-TEAD” (Springworks Therapeutics, Inc., priority 2023, published 2024).

Experiments:
Assay type in all cases: cell-based
[1] = system: NCI-H226 mesothelioma cell line; test: Mesothelioma cell line proliferation assay, NCI-H226 (ATPlite); settings: NCI-H226 cells, 6 days with compound, cell viability by ATPlite
Description: (§1) Example 57: Activity of Compounds of the Disclosure in Mesothelioma Cell Line Proliferation Assays
(§2) Mesothelioma cell lines, NCI-H226 and NCI-H2052 (both sourced from the ATCC cell culture collection) were plated in 96-well plates (Corning® 96 Well White Polystyrene Microplate clear flat bottom, white polystyrene (TC-Treated)), at 1500 cells/well in full medium (RPMI 1640 ATCC modification with L-glutamine, HEPES, Phenol Red, Sodium Pyruvate, High glucose, Low sodium bicarbonate and 10% fetal bovine serum). Cells were incubated overnight at 37° C. in an incubator with 5% CO2. Then compounds, dissolved in DMSO, were added in dose-response. Cells were incubated with compound dilutions for another 6 days at 37° C. in an incubator with 5% CO2. Cell viability was quantitated using the ATPlite kit (Perkin-Elmer) and the luminescence was read-out using an Envision instrument (Perkin-Elmer). The amount of relative light units produced using the ATPlite kit was used to calculate percent of inhibition.
(§3) The activities of some example compounds are depicted in Table 4. The activity ranges A, B and C refer to EC50 values in the mesothelioma cell line proliferation assay as described as follows: “A”: EC50<1 μM; “B”: 1 μM≤EC50≤10 μM and “C”: EC50>10 μM; NT: not tested.

[2] = system: YAP/TAZ-TEAD transcription; test: Reporter gene assay for measuring the inhibition of YAP/TAZ-TEAD transcription (TEAD-responsive element luciferase reporter in Hek293T cells); settings: 24 hours incubation
Procedure, shortened: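 HEK293T cells transiently transfected with a TEAD-responsive luciferase reporter were exposed to compounds for 24 h at 37° C/5% CO2, then luminescence was read. Percent inhibition normalised to vehicle (0%) and positive-control inhibitor (100%); IC50 derived.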

[3] = system: NCI-H2052 mesothelioma cell line; test: Mesothelioma cell line proliferation assay, NCI-H2052 (ATPlite); settings: NCI-H2052 cells, 6 days with compound, cell viability by ATPlite
Description: as §1, §2, §3

Structure (SMILES) | IC50 ([2]; Homo sapiens, HEK-293T, 24 h) | also measured
CNS(=O)(=O)N1CCN2c3ccccc3N(c3ccc(C(F)(F)F)cc3)CC2C1 (single isomer, unassigned) [32-En2, (R)- or (S)-N-methyl-6-(4-(trifluoromethyl)phenyl)-1,2,4,4a,5,6-hexahydro-3H-pyrazino[1,2-a]quinoxaline-3-sulfonamide] |  | EC50 [1]: < 1 µM; IC50 [2]: < 1 µM
CC(=O)NCC1CN(c2ccc(C(F)(F)F)cc2)c2ccccc2N1 (single isomer, unassigned) [34-En2, (R)- or (S)-N-((4-(4-(trifluoromethyl)phenyl)-1,2,3,4-tetrahydroquinoxalin-2-yl)methyl)acetamide] | < 1 µM | EC50 [1]: < 1 µM
CC(=O)NCC1CN(c2ccc(C(F)(F)F)cc2)c2ccccc2O1 (single isomer, unassigned) [36-En1, (R)- or (S)-N-((4-(4-(trifluoromethyl)phenyl)-3,4-dihydro-2H-benzo[b][1,4]oxazin-2-yl)methyl)acetamide] |  | EC50 [1]: < 1 µM; IC50 [2]: < 1 µM
C=CC(=O)N1CCN2c3nccnc3N(c3ccc(C(F)(F)F)cc3)CC2C1 (stereo not drawn) [41-En1, 1-(5-(4-(trifluoromethyl)phenyl)-5,6,6a,7,9,10-hexahydro-8H-dipyrazino[1,2-a:2′,3′-e]pyrazin-8-yl)prop-2-en-1-one] |  | EC50 ([1]; Homo sapiens, 144 h): < 1 µM; EC50 ([3]; Homo sapiens, 144 h): < 1 µM
C=CC(=O)N1CCN2c3nccnc3N(c3ccc(C(F)(F)F)cc3)CC2C1 (stereo not drawn) [41-En2, 1-(5-(4-(trifluoromethyl)phenyl)-5,6,6a,7,9,10-hexahydro-8H-dipyrazino[1,2-a:2′,3′-e]pyrazin-8-yl)prop-2-en-1-one] |  | EC50 [1]: < 1 µM; EC50 [3]: < 1 µM
C=CC(=O)NCC1CN(c2ccc(C(F)(F)F)cc2)c2cccnc2O1 (stereo not drawn) [48-En1, N-((1-(4-(trifluoromethyl)phenyl)-2,3-dihydro-1H-pyrido[2,3-b][1,4]oxazin-3-yl)methyl)acrylamide] |  | EC50 ([1]; Homo sapiens, 144 h): < 1 µM; EC50 ([3]; Homo sapiens, 144 h): < 1 µM
C=CC(=O)NCC1CN(c2ccc(C(F)(F)F)cc2)c2cccnc2O1 (stereo not drawn) [48-En2, N-((1-(4-(trifluoromethyl)phenyl)-2,3-dihydro-1H-pyrido[2,3-b][1,4]oxazin-3-yl)methyl)acrylamide] |  | EC50 [1]: < 1 µM; EC50 [3]: < 1 µM
O=C(O)C1CCN2c3ccccc3N(c3ccc(C(F)(F)F)cc3)CC2C1 (stereo not drawn) [65B, (cis)- or (trans)-5-(4-(trifluoromethyl)phenyl)-6,6a,7,8,9,10-hexahydro-5H-pyrido[1,2-a]quinoxaline-8-carboxylic acid] |  | EC50 ([1]; Homo sapiens, 144 h): < 1 µM; EC50 ([3]; Homo sapiens, 144 h): < 1 µM
O=C(O)C1CCN2c3ncccc3N(c3ccc(C(F)(F)F)cc3)CC2C1 [96B-En1, (6aS,8S)- or (6aR,8S)- or (6aR,8R)- or (6aS,8R)-5-(4-(trifluoromethyl)phenyl)-6,6a,7,8,9,10-hexahydro-5H-dipyrido[1,2-a:3′,2′-e]pyrazine-8-carboxylic acid] |  | EC50 ([1]; Homo sapiens, 144 h): < 1 µM; EC50 ([3]; Homo sapiens, 144 h): < 1 µM
C=CC(=O)N1CCN2c3ccccc3N(c3ccc(C(F)(F)F)cc3)CC2C1 (stereo not drawn) [compound 14, 1-(6-(4-(trifluoromethyl)phenyl)-1,2,4,4a,5,6-hexahydro-3H-pyrazino[1,2-a]quinoxalin-3-yl)prop-2-en-1-one] | < 1 µM | EC50 [1]: < 1 µM
O=C(O)CC(=O)N[C@@H]1C[C@@H]2CN(c3ccc(C(F)(F)F)cc3)c3cccnc3N2C1 [compound 94, 3-oxo-3-(((6aR,8R)-5-(4-(trifluoromethyl)phenyl)-5,6,6a,7,8,9-hexahydropyrido[3,2-e]pyrrolo[1,2-a]pyrazin-8-yl)amino)propanoic acid] | 1 to 10 µM | 
O=C(CO)N[C@@H]1C[C@@H]2CN(c3ccc(C(F)(F)F)cc3)c3cccnc3N2C1 [compound 95, 2-hydroxy-N-((6aR,8R)-5-(4-(trifluoromethyl)phenyl)-5,6,6a,7,8,9-hexahydropyrido[3,2-e]pyrrolo[1,2-a]pyrazin-8-yl)acetamide] | < 1 µM | 
NCC(=O)N[C@@H]1C[C@@H]2CN(c3ccc(C(F)(F)F)cc3)c3cccnc3N2C1 [compound 97, 2-amino-N-((6aR,8R)-5-(4-(trifluoromethyl)phenyl)-5,6,6a,7,8,9-hexahydropyrido[3,2-e]pyrrolo[1,2-a]pyrazin-8-yl)acetamide] | < 1 µM | 
CC(=O)N[C@@H]1C[C@@H]2CN(c3ccc(C(F)(F)F)cc3)c3cc(Cl)cnc3N2C1 [compound 98, N-((6aR,8R)-3-chloro-5-(4-(trifluoromethyl)phenyl)-5,6,6a,7,8,9-hexahydropyrido[3,2-e]pyrrolo[1,2-a]pyrazin-8-yl)acetamide] | < 1 µM | 
N#C[C@@H]1C[C@@H]2CN(c3ccc(C(F)(F)F)cc3)c3cccnc3N2C1 [compound 103, (6aR,8R)-5-(4-(trifluoromethyl)phenyl)-5,6,6a,7,8,9-hexahydropyrido[3,2-e]pyrrolo[1,2-a]pyrazine-8-carbonitrile] | > 10 µM | 
O=C(O)C1CCN2c3ccc(Cl)cc3N(c3ccc(C(F)(F)F)cc3)CC2C1 (stereo not drawn) [compound 104, (cis)- or (trans)-3-chloro-5-(4-(trifluoromethyl)phenyl)-6,6a,7,8,9,10-hexahydro-5H-pyrido[1,2-a]quinoxaline-8-carboxylic acid] | 1 to 10 µM | 
O=C(O)C1CCN2c3c(Cl)cccc3N(c3ccc(C(F)(F)F)cc3)CC2C1 (stereo not drawn) [compound 105, (cis)- or (trans)-1-chloro-5-(4-(trifluoromethyl)phenyl)-6,6a,7,8,9,10-hexahydro-5H-pyrido[1,2-a]quinoxaline-8-carboxylic acid] | < 1 µM | 
O=C(O)C1CCN2c3cc(Cl)ccc3N(c3ccc(C(F)(F)F)cc3)CC2C1 (stereo not drawn) [compound 106, (cis)- or (trans)-2-chloro-5-(4-(trifluoromethyl)phenyl)-6,6a,7,8,9,10-hexahydro-5H-pyrido[1,2-a]quinoxaline-8-carboxylic acid] | < 1 µM | 
CC(=O)NCC1CN(c2ccc(C(F)(F)F)cc2)c2ccc(OC(F)F)nc2O1 (stereo not drawn) [compound 108, N-((6-(difluoromethoxy)-1-(4-(trifluoromethyl)phenyl)-2,3-dihydro-1H-pyrido[2,3-b][1,4]oxazin-3-yl)methyl)acetamide] | 1 to 10 µM | 
CC(C)(O)C(=O)N[C@@H]1C[C@@H]2CN(c3ccc(C(F)(F)F)cc3)c3cccnc3N2C1 [compound 110, 2-hydroxy-2-methyl-N-((6aR,8R)-5-(4-(trifluoromethyl)phenyl)-5,6,6a,7,8,9-hexahydropyrido[3,2-e]pyrrolo[1,2-a]pyrazin-8-yl)propanamide] | < 1 µM | 
O=C(O)C1CCN(c2ccccc2Nc2ccc(C(F)(F)F)cc2)CC1 [compound 111, 1-(2-((4-(trifluoromethyl)phenyl)amino)phenyl)piperidine-4-carboxylic acid] | < 1 µM | 
CC(=O)NCC1CN(c2ccc(C(F)(F)F)cc2)c2ccc(C(F)F)nc2O1 (stereo not drawn) [compound 112, N-((6-(difluoromethyl)-1-(4-(trifluoromethyl)phenyl)-2,3-dihydro-1H-pyrido[2,3-b][1,4]oxazin-3-yl)methyl)acetamide] | < 1 µM | 
O=C(O)[C@H]1C[C@@H]2CN(c3ccc(C(F)(F)F)cc3)c3cccnc3N2C1 [compound 113, (6aR,8S)-5-(4-(trifluoromethyl)phenyl)-5,6,6a,7,8,9-hexahydropyrido[3,2-e]pyrrolo[1,2-a]pyrazine-8-carboxylic acid] | 1 to 10 µM | 
CC1(C(=O)O)CCN2c3ccccc3N(c3ccc(C(F)(F)F)cc3)CC2C1 (stereo not drawn) [compound 114, (cis)- or (trans)-8-methyl-5-(4-(trifluoromethyl)phenyl)-6,6a,7,8,9,10-hexahydro-5H-pyrido[1,2-a]quinoxaline-8-carboxylic acid] | < 1 µM | 
CN(c1ccc(C(F)(F)F)cc1)c1ccccc1N1CCC(C(=O)O)CC1 [compound 118, 1-(2-(methyl(4-(trifluoromethyl)phenyl)amino)phenyl)piperidine-4-carboxylic acid] | 1 to 10 µM | 
O=C(O)C1CCN(c2ccccc2Nc2ccc(C(F)(F)F)cc2)C(=O)C1 (stereo not drawn) [compound 119, 2-oxo-1-(2-((4-(trifluoromethyl)phenyl)amino)phenyl)piperidine-4-carboxylic acid] | > 10 µM | 
O=C(O)C1CCN(c2ccccc2Oc2ccc(C(F)(F)F)cc2)CC1 [compound 120, 1-(2-(4-(trifluoromethyl)phenoxy)phenyl)piperidine-4-carboxylic acid] | < 1 µM | 
O=C(O)C1CCN(c2ncccc2Nc2ccc(C(F)(F)F)cc2)CC1 [compound 124, 1-(3-((4-(trifluoromethyl)phenyl)amino)pyridin-2-yl)piperidine-4-carboxylic acid] | < 1 µM | 
Cc1ccc(Nc2ccc(C(F)(F)F)cc2)c(N2CCC(C(=O)O)CC2)n1 [compound 125, 1-(6-methyl-3-((4-(trifluoromethyl)phenyl)amino)pyridin-2-yl)piperidine-4-carboxylic acid] | < 1 µM | 
